Assay results from patent US20180319810A1, “SUBSTITUTED BRIDGED UREA ANALOGS AS SIRTUIN MODULATORS” (GlaxoSmithKline Intellectual Property (No.2) Limited, priority 2014, published 2018).

Biological target: T1, SIRT1 (Homo sapiens, UniProt Q96EB6)
T1 sequence (Q96EB6 1-747): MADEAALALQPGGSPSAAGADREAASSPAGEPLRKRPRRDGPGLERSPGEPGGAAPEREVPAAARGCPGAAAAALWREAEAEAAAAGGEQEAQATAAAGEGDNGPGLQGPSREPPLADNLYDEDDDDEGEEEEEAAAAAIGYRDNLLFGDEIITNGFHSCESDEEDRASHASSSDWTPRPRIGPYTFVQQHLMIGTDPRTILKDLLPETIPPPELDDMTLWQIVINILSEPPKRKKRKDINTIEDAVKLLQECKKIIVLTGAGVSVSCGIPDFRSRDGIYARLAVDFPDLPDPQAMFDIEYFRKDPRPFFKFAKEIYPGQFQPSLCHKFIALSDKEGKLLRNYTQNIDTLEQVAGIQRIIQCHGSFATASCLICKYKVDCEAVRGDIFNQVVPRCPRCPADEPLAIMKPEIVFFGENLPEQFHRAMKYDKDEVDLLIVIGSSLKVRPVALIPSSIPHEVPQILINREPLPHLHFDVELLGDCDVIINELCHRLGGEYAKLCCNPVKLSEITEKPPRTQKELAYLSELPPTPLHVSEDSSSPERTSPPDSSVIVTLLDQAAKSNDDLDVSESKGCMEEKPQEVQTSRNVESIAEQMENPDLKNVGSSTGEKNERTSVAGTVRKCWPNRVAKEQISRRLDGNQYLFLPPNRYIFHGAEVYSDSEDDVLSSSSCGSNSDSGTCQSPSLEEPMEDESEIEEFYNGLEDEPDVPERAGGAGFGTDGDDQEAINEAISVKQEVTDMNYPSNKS
Experiment: Trp mass spectrometry assay of SIRT1 activation
Type: biochemical
Details: Trp peptide Ac-R-H-K-K(Ac)-W-NH2 0.5 μM, 120 μM βNAD+, 10 nM SIRT1, 25 min, 25° C.
Text: Mass spectrometry based assays were used to identify modulators of SIRT1 activity. […] The peptide was labeled with the fluorophore 5TMR (excitation 540 nm/emission 580 nm) at the C-terminus. The sequence of the peptide substrate was based on p53 with several modifications. In addition, the methionine residue naturally present in the sequence was replaced with the norleucine because the methionine may be susceptible to oxidation during synthesis and purification.
The Trp mass spectrometry assay was conducted as follows. […] The SIRT1 protein was obtained by cloning the SirT1 gene into a T7-promoter containing vector, which was then expressed in BL21(DE3) bacterial cells and purified as described in further detail below. Test compound was added at varying concentrations to this reaction mixture and the resulting reactions were monitored. After the 25 minute incubation with SIRT1, 10 μL of 10% formic acid was added to stop the reaction. The resulting reactions were sealed and frozen for later mass spec analysis. The relative SIRT1 activity was then determined by measuring the amount of O-acetyl-ADP-ribose (OAADPR) formed (or, alternatively, the amount of deacetylated Trp peptide generated) by the NAD-dependent sirtuin deacetylation reaction in the presence of varying concentrations of the test compound versus control reactions lacking the test compound.
The degree to which the test agent activated deacetylation by SIRT1 was expressed as EC1.5 (i.e., the concentration of compound required to increase SIRT1 activity by 50% over the control lacking test compound), and Percent Maximum Activation (i.e., the maximum activity relative to control (100%) obtained for the test compound).
This time point was the same as that used for test compounds and, within the linear range, the endpoint represents a change in velocity.
For the above assay, SIRT1 protein was expressed and purified as follows. The SirT1 gene was cloned into a T7-promoter containing vector and transformed into BL21(DE3). The protein was expressed by induction with 1 mM IPTG as an N-terminal His-tag fusion protein at 18° C. overnight and harvested at 30,000×g. Cells were lysed with lysozyme in lysis buffer (50 mM Tris-HCl, 2 mM Tris[2-carboxyethyl]phosphine (TCEP), 10 μM ZnCl2, 200 mM NaCl) and further treated with sonication for 10 min for complete lysis. The protein was purified over a Ni-NTA column (Amersham) and fractions containing pure protein were pooled, concentrated and run over a sizing column (Sephadex S200 26/60 global). The peak containing soluble protein was collected and run on an Ion-exchange column (MonoQ). Gradient elution (200 mM-500 mM NaCl) yielded pure protein. This protein was concentrated and dialyzed against dialysis buffer (20 mM Tris-HCl, 2 mM TCEP) overnight. The protein was aliquoted and frozen at −80° C. until further use.
“NT” means not tested; “ND” means not determinable.

Row | TRP Activity (EC1.5, concentration of compound required to increase SIRT1 activity by 50% over control) | TRP MAX RESP (percent maximum fold activation relative to control) | Compound
1 | B (EC1.5 1-25 μM) | A (Fold activation ≥150%) | Cc1ccc(-c2nc(C)c3c(n2)N(C(=O)Nc2cccnc2)[C@H]2CCN3C2)cn1 [Example 7, (8S)-4-methyl-2-(6-methylpyridin-3-yl)-N-(pyridin-3-yl)-7,8-dihydro-5,8-methanopyrimido[4,5-b][1,4]diazepine-9(6H)-carboxamide]
2 | B (EC1.5 1-25 μM) | A (Fold activation ≥150%) | C[C@@H](NC(=O)c1ncc2c(n1)N(C(=O)Nc1cc(OC[C@H](O)CO)ncn1)[C@H]1CCCN2C1)C(F)(F)F [Example 77, (9S)—N10-(6-((R)-2,3-dihydroxypropoxy)pyrimidin-4-yl)-N2-((R)-1,1,1-trifluoropropan-2-yl)-8,9-dihydro-6H-5,9-methanopyrimido[4,5-b][1,4]diazocine-2,10(7H)-dicarboxamide]
3 | A (EC1.5<1 μM) | A (Fold activation ≥150%) | O=C(Nc1ccc(OC[C@H](O)CO)nc1)N1c2nc(-c3cccc(C(F)(F)F)c3)ncc2N2CCC[C@H]1C2 [Example 82, (9S)—N-(6-((R)-2,3-dihydroxypropoxy)pyridin-3-yl)-2-(3-(trifluoromethyl)phenyl)-8,9-dihydro-6H-5,9-methanopyrimido[4,5-b][1,4]diazocine-10(7H)-carboxamide]
4 | A (EC1.5<1 μM) | A (Fold activation ≥150%) | C[C@@H](NC(=O)c1ncc2c(n1)N(C(=O)Nc1ccccn1)[C@H]1CCCN2C1)C(F)(F)F [Example 63, (9S)—N10-(pyridin-2-yl)-N2-((R)-1,1,1-trifluoropropan-2-yl)-8,9-dihydro-6H-5,9-methanopyrimido[4,5-b][1,4]diazocine-2,10(7H)-dicarboxamide]
5 | A (EC1.5<1 μM) | A (Fold activation ≥150%) | O=C(Nc1ccnc(OC[C@@H](O)CO)n1)N1c2nc(-c3cccc(C(F)(F)F)c3)ncc2N2CCC[C@H]1C2 [Example 79, (9S)—N-(2-((S)-2,3-dihydroxypropoxy)pyrimidin-4-yl)-2-(3-(trifluoromethyl)phenyl)-8,9-dihydro-6H-5,9-methanopyrimido[4,5-b][1,4]diazocine-10(7H)-carboxamide]
6 | A (EC1.5<1 μM) | A (Fold activation ≥150%) | O=C(Nc1cc(OC[C@@H](O)CO)ccn1)N1c2nc(-c3cccc(C(F)(F)F)c3)ncc2N2CCC[C@H]1C2 [Example 91, (9S)—N-(4-((S)-2,3-dihydroxypropoxy)pyridin-2-yl)-2-(3-(trifluoromethyl)phenyl)-8,9-dihydro-6H-5,9-methanopyrimido[4,5-b][1,4]diazocine-10(7H)-carboxamide]
7 | B (EC1.5 1-25 μM) | A (Fold activation ≥150%) | O=C(NCC(F)(F)F)c1ncc2c(n1)N(C(=O)Nc1ccccn1)[C@H]1CCN2C1 [Example 58, (8S)—N9-(pyridin-2-yl)-N2-(2,2,2-trifluoroethyl)-7,8-dihydro-5,8-methano pyrimido[4,5-b][1,4]diazepine-2,9(6H)-dicarboxamide]
8 | A (EC1.5<1 μM) | A (Fold activation ≥150%) | O=C(Nc1cc(OC[C@H](O)CO)ccn1)N1c2nc(-c3cccc(C(F)(F)F)c3)ncc2N2CCC[C@H]1C2 [Example 80, (9S)—N-(4-((R)-2,3-dihydroxypropoxy)pyridin-2-yl)-2-(3-(trifluoromethyl)phenyl)-8,9-dihydro-6H-5,9-methanopyrimido[4,5-b][1,4]diazocine-10(7H)-carboxamide]
9 | B (EC1.5 1-25 μM) | A (Fold activation ≥150%) | O=C(Nc1ncc(OC[C@H](O)CO)cn1)N1c2nc(-c3cccc(C(F)(F)F)c3)ncc2N2CC[C@H]1C2 [Example 41, (8S)—N-(5-((R)-2,3-dihydroxypropoxy)pyrimidin-2-yl)-2-(3-(trifluoromethyl)phenyl)-7,8-dihydro-5,8-methanopyrimido[4,5-b][1,4]diazepine-9(6H)-carboxamide]
10 | A (EC1.5<1 μM) | A (Fold activation ≥150%) | Cc1ccc2c(NC(=O)N3c4nc(C(=O)N[C@H](C)C(F)(F)F)nc(C)c4N4CCC[C@H]3C4)n[nH]c2n1 [Example 73, (9S)-4-methyl-N10-(6-methyl-1H-pyrazolo[3,4-b]pyridin-3-yl)-N2-((R)-1,1,1-trifluoropropan-2-yl)-8,9-dihydro-6H-5,9-methanopyrimido[4,5-b][1,4]diazocine-2,10(7H)-dicarboxamide]
11 | B (EC1.5 1-25 μM) | A (Fold activation ≥150%) | Cc1cc(-c2ncc3c(n2)N(C(=O)Nc2cccnc2)[C@H]2CCN3C2)ccn1 [Example 6, (8S)-2-(2-methylpyridin-4-yl)-N-(pyridin-3-yl)-7,8-dihydro-5,8-methano pyrimido[4,5-b][1,4]diazepine-9(6H)-carboxamide]
12 | B (EC1.5 1-25 μM) | A (Fold activation ≥150%) | O=C(Nc1cncc(OC[C@@H](O)CO)c1)N1c2nc(-c3cccc(C(F)(F)F)c3)ncc2N2CC[C@H]1C2 [Example 24, (8S)—N-(5-((S)-2,3-dihydroxypropoxy)pyridin-3-yl)-2-(3-(trifluoromethyl)phenyl)-7,8-dihydro-5,8-methanopyrimido[4,5-b][1,4]diazepine-9(6H)-carboxamide]

Row | Compound | TRP Activity (EC1.5, concentration of compound required to increase SIRT1 activity by 50% over control) | TRP MAX RESP (percent maximum fold activation relative to control)
13 | O=C(Nc1ccnc(OC2CCOCC2)n1)N1c2nc(-c3cccc(C(F)(F)F)c3)ncc2N2CC[C@H]1C2 [Example 19, (8S)—N-(2-((tetrahydro-2H-pyran-4-yl)oxy)pyrimidin-4-yl)-2-(3-(trifluoromethyl)phenyl)-7,8-dihydro-5,8-methanopyrimido[4,5-b][1,4]diazepine-9(6H)-carboxamide] | B (EC1.5 1-25 μM) | A (Fold activation ≥150%)
14 | O=C(Nc1ccccn1)N1c2nc(-c3cccc(C(F)(F)F)c3)ncc2N2CC[C@H]1C2 [Example 3, (8S)—N-(pyridin-2-yl)-2-(3-(trifluoromethyl)phenyl)-7,8-dihydro-5,8-methano pyrimido[4,5-b][1,4]diazepine-9(6H)-carboxamide] | – | A (Fold activation ≥150%)
